The nature of this data set: method code SF-AS, from DOI: 10.1021/jm00252a008, PMID: 4598022.

What is called logP is the decadic logarithm of the partition coefficient of the neutral form, usually between octanol and water. With `CC(C)N=C1SC(=Cc2ccc([N+](=O)[O-])o2)C(=O)N1C(C)C`, the lipophilicity (logP) was 1.22.

Regarding `CC(C)/N=C1\NC(=O)/C(=C/c2ccc([N+](=O)[O-])o2)S1`, the log partition coefficient (logP) was 1.29.

As for `CN(C)C1=NC(=O)/C(=C/c2ccc([N+](=O)[O-])o2)S1`, the log partition coefficient (logP) is 1.16.

In turn, `CCN1C(=O)S/C(=C/c2ccc([N+](=O)[O-])o2)C1=O` showed a logP of 2.29.

In turn, `CC(=O)N(C)C1=NC(=O)/C(=C/c2ccc([N+](=O)[O-])o2)S1` came in with a logP of 1.05.

In turn, `CC/N=C1\NC(=O)/C(=C/c2ccc([N+](=O)[O-])o2)S1` had a logP of 1.16. This logP and that of the compound before are within 0.2 log units of each other.

Consider `CC(=O)NC1=NC(=O)/C(=C/c2ccc([N+](=O)[O-])o2)S1`, for which the lipophilicity (logP) was found to be 1.03.

`C/N=C1\SC(=Cc2ccc([N+](=O)[O-])o2)C(=O)N1C` showed a logP of 1.42.

Consider `CCN(CC)C1=NC(=O)/C(=C/c2ccc([N+](=O)[O-])o2)S1`, for which the logP was found to be 1.22.

`O=C1NC(=Nc2ccccc2)SC1=Cc1ccc([N+](=O)[O-])o1` yielded a lipophilicity (logP) of 1.41.

As for `CC(=O)Nc1nc(=O)cc(-c2ccc([N+](=O)[O-])o2)s1`, the lipophilicity (logP) amounted to 1.01.

Turning to `C/N=C1/NC(=O)/C(=C/C=C/c2ccc([N+](=O)[O-])o2)S1`, the logP worked out at 1.35.

Turning to `CC(=O)N(C)C1=NC(=O)/C(=C\C=C/c2ccc([N+](=O)[O-])o2)S1`, the logP stood at 1.21.

`CCN1C(=O)C(=Cc2ccc([N+](=O)[O-])o2)S/C1=N\C(C)=O` registered a lipophilicity (logP) of 1.21.

In the case of `CN1C(=O)/C(=C\c2ccc([N+](=O)[O-])o2)SC1=S`, the logP was 1.06.

`CSC1=NC(=O)C(=Cc2ccc([N+](=O)[O-])o2)S1` (stereo in doubt) yielded a lipophilicity (logP) of 1.41.

Turning to `O=C1NC(=O)/C(=C\c2ccc([N+](=O)[O-])o2)S1`, the logP was determined as 0.63.

`C/N=C1\NC(=O)/C(=C/c2ccc([N+](=O)[O-])o2)S1` had a logP of 1.16.

`C=CCN1C(=O)S/C(=C\c2ccc([N+](=O)[O-])o2)C1=O` returned a logP of 2.22.

Turning to `NC1=NC(=O)C(=Cc2ccc([N+](=O)[O-])o2)S1` (stereo in doubt), the log partition coefficient (logP) came out at 1.09.

Compound `CCCN1C(=O)/C(=C/c2ccc([N+](=O)[O-])o2)S/C1=N\C(C)=O` had a logP of 1.17.

On to `CC(=O)NC1=NC(=O)/C(=C\C=Cc2ccc([N+](=O)[O-])o2)S1` (stereo in doubt), for which the logP came to 0.95.

As to `C=CCN=C1SC(=Cc2ccc([N+](=O)[O-])o2)C(=O)N1CC=C`, the log partition coefficient (logP) came to 1.46.

`O=c1cc(-c2ccc([N+](=O)[O-])o2)sc(=O)[nH]1`: the log partition coefficient (logP) amounted to 0.55.

For the compound `CN1C(=O)S/C(=C\c2ccc([N+](=O)[O-])o2)C1=O`, the logP was 1.78.

Consider `CCC/N=C1\NC(=O)/C(=C/c2ccc([N+](=O)[O-])o2)S1`, for which the lipophilicity (logP) stood at 1.24.

Regarding `CCN1C(=N)SC(=Cc2ccc([N+](=O)[O-])o2)C1=O`, the logP stood at 1.44.

In the case of `O=C1NC(=S)SC1=CC=Cc1ccc([N+](=O)[O-])o1`, the lipophilicity (logP) amounted to 0.93.

Compound `CCCN=C1SC(=Cc2ccc([N+](=O)[O-])o2)C(=O)N1CCC` gave a logP of 1.32.

`CC(=O)N=C1S/C(=C\c2ccc([N+](=O)[O-])o2)C(=O)N1C` (stereo in doubt) had a log partition coefficient (logP) of 1.21. The logP values of the last two compounds are within 0.2 log units of each other.

The compound `CCCN1C(=O)S/C(=C\c2ccc([N+](=O)[O-])o2)C1=O` returned a logP of 2.4.

In turn, `CN1C(=O)SC(=CC=Cc2ccc([N+](=O)[O-])o2)C1=O` registered a lipophilicity (logP) of 1.4.

`O=C1NC(=S)SC1=Cc1ccc([N+](=O)[O-])o1` yielded a logP of 0.74.

`CN(C)c1nc(=O)cc(-c2ccc([N+](=O)[O-])o2)s1` came in with a logP of 0.55.

With `CN1C(=N)S/C(=C/c2ccc([N+](=O)[O-])o2)C1=O`, the logP came out at 1.44.

The compound `CNc1nc(=O)cc(-c2ccc([N+](=O)[O-])o2)s1` gave a lipophilicity (logP) of 0.86.

`CC(C)N1C(=O)S/C(=C\c2ccc([N+](=O)[O-])o2)C1=O` displayed a logP of 2.42.

The record behind these values is the SangsterLogP compilation.
